US3996205A, “Aminoglycoside antibiotics and intermediates” (The Upjohn Company, priority 1975, dated 1976)

Legend:
[1] = system: S. hemolyticus UC 152; assay: microplate test in BHI agar, S. hemolyticus UC 152; type: cell-based, Streptococcus hemolyticus; conditions: tested again (table 4), same conditions
Experimental: (§1) Compounds were also tested in a standard microplate test in Brain Heart Infusion (BHI) Agar, at a concentration of 1 mg/ml. Incubation is at 37° and end points are read at 20 hours. Brain Heart Infusion Agar (supplied by Difco Laboratories, Detroit, Michigan, U.S.A.) has the following composition:
(§2) Compounds (7β), (7α) and (9) were tested again along with compounds (11) and (14β) against a neamine control using the same conditions as given above.

[2] = system: P. rettgeri UC 339; assay: microplate test in BHI agar, P. rettgeri UC 339; type: cell-based; conditions: table 4, same conditions
Experimental: as §1, §2

[3] = system: K. pneumoniae UC 58; assay: microplate test in BHI agar, K. pneumoniae UC 58; type: cell-based; conditions: tested again (table 4), same conditions
Experimental: as §1, §2

[4] = system: S. typhi TG-3; assay: microplate test in BHI agar, S. typhi TG-3; type: cell-based; conditions: table 4, same conditions
Experimental: as §1, §2

Question: NC[C@H]1O[C@H](O[C@H]2[C@H](O)[C@@H](O)[C@H](N)C[C@@H]2N)[C@H](N)[C@@H](O)[C@@H]1O [Neamine, neamine] was tested. Which “Minimum Inhibitory Concentration” value [1] did it give?
Answer: 3.9 µg/mL

Question: What about the “Minimum Inhibitory Concentration” value [2] of the same compound?
Answer: 1000 µg/mL

Question: And the “Minimum Inhibitory Concentration” value [3]?
Answer: 3.9 µg/mL

Question: What about the “Minimum Inhibitory Concentration” value [4] of the same compound?
Answer: 15.6 µg/mL
